{"source": "paper PMC12406256", "about": "“Food Additives Inhibit Intestinal Drug Transporters but Have Limited Effect on In Vitro Drug Permeability” (Molecular Pharmaceutics, 2025)", "test_system": "Caco-2 cells", "assay": "in vitro", "details": "Caco-2", "method": "Caco-2 cells were cultured on 12-well Transwell polycarbonate membrane inserts with a 0.4 μm pore size (Corning Incorporated, Kennebunk, ME) at 37 °C and 5% CO2 for 21–24 days prior to the experiment as described in Hubatsch et al. The culture medium (DMEM, 10% FBS, 1% MEM nonessential amino acids, 100 U/mL penicillin–streptomycin) was changed every second day. Transepithelial electrical resistance (TEER) was measured before and after the permeability assay with a Millicell-ERS electrode (Millipore, Bedford, MA) attached to an epithelial volt ohm meter (EVOM, World Precision Instruments, Sarasota, FL). The permeability assay was performed according to a previously published protocol. […] Sulfasalazine is a substrate of BCRP and OATP2B1. , The DMSO concentration was 0.45–1.5%. Before the experiment, inserts were washed and preincubated in the transport buffer for 20 min shaking at 37 °C. Sulfasalazine and LY permeability was measured in the apical to basolateral direction at five time points (20, 40, 60, 90, and 120 min) and, additionally, in the basolateral to apical direction to calculate the efflux ratio. […] […] LY (250 μM) was added on the donor side of all inserts to measure the integrity of the cell monolayer. Before analysis, samples were centrifuged at 2755g for 30 min, and donor solution and mass balance samples were diluted 1:100. LY fluorescence was measured with a Varioskan LUX microplate reader (Thermo Fisher Scientific) at 430 nm excitation and 538 nm emission. Sulfasalazine was analyzed with ultra-performance liquid chromatography (UPLC) using a Syncronis C18 column (1.7 μm particle size, 50 × 2.1 mm + 0.2 μm Waters online filter) (Thermo Fisher Scientific) coupled with Waters Acquity UPLC interfaced with a PDA detector both controlled by the Waters Empower software version 3. The UPLC was operated in gradient mode at 354 nm. Solvents were 0.015 M phosphate buffer pH 2 (A), acetonitrile (B), 1:1 acetonitrile/methanol (strong needle wash), and 20% acetonitrile (weak needle wash). Column temperature was 30 °C, injection volume was 10 μL, retention time was 1.46 min, and flow rate was 0.5 mL/min. The gradient was 25% B → 70% B (0–3 min), 70% B → 25% B (3.00–3.01 min), and 25% B (3.01–4 min). The data were collected for the first 180 s of each UPLC run.\nIn the Caco-2 permeability assay, the apparent permeability (P app) of sulfasalazine was calculated using the following equation: Papp=(dQ/dt)(1/A×C0) where dQ/dt is the rate of permeation across the cells (nmol/min), A is the surface area of the filter (1.12 cm^2), and C 0 is the initial concentration in the donor chamber (μM). The efflux ratio of sulfasalazine was calculated by dividing the P app in the basolateral to the apical direction by the P app in the apical to basolateral direction. The TEER for each cell insert was calculated before and after the experiment by multiplying the mean resistance of three measurements by the surface area of the filter (1.12 cm^2). Mass balance was calculated by dividing the […]. All experiments were done in triplicate wells, and the IC50 and Caco-2 permeability assays were repeated three times."}
{"smiles": "CC1=C(/C=C/C(C)=C/C=C/C(C)=C/C=C/C=C(C)/C=C/C=C(C)/C=C/C2=C(C)CCCC2(C)C)C(C)(C)CCC1", "note": "[beta-carotene]", "values": [{"measurement": "effect on sulfasalazine permeability (P app)", "value": "None of the selected food additives showed any effect"}]}
